Source: US20260217707A1, “GLP-1R AGONISTS AND USES THEREOF” (Fochon Biosciences, Ltd., priority 2023, published 2026)

These compounds were tested against GLP1R receptor (Homo sapiens, UniProt P43220) (assay: cAMP assay: intracellular cAMP detected by TR-FRET). Details: cells incubated with compound at 37° C. for 30 min, maximum concentration 12 μM.
Assay type: cell-based
Description: Intracellular cAMP concentration was detected by TR-FRET method to evaluate the activity of drug-induced GLP1R receptor. The cells were prepared in an experimental buffer solution (HBSS, 20 mM HEPES (pH 7.5), 0.1% BSA, 500 μM IBMX) and inoculated into 384 cell culture plates with a inoculated density of 2000 cells and a inoculated volume of 15 μL per well. The compound was diluted by 3 times gradient with DMSO, 10 concentration gradients, and the 10 concentration gradients were diluted by 100 times in Buffer. The maximum concentration point of compound to be tested was 12 μM. The inoculated 384 cell plates were added with 5 μL prepared working solution and incubated at 37° C. for 30 min. Eu-cAMP tracer was diluted 50 times and Ulight-anti-cAMP 150 times by detection buffer (cAMP Kit, Perkin Elmer, cat #TRF0263). At first, 10 μL Eu-cAMP tracer was added to each experimental well, and then 10 μL Uligh-anti-cAMP was added to each experimental well. Centrifuged the assay plate at 200 g, RT, for 30 s, incubated it at 25° C. for 1 h. Collected the data by Envision 2105 microplate reader with a HTRF module. Excitation: 340 nm; emission: 665 nm and 615 nm.
The activation rate of each concentration of the tested compound to the positive drug was calculated by the formula % Activity=100 (SignalcmpdSignalAve_PC)/(SignalAve_VCSignalAve_PC)×100, EC50 values and nonlinear regression curve fits were obtained using GraphPad Prism software.

Sequence of GLP1R receptor (P43220 24-463): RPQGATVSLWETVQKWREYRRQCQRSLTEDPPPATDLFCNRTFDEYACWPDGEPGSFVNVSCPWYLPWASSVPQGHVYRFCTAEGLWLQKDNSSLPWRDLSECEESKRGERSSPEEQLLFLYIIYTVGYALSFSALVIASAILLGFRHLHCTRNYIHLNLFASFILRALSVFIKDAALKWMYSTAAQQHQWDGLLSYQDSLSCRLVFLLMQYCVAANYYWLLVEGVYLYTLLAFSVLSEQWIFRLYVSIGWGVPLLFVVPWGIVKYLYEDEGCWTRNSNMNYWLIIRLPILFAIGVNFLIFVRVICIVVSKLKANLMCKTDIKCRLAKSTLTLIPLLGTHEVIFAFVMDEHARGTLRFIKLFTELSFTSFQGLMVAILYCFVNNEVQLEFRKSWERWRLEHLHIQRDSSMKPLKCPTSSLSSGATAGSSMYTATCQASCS

First: Cc1cc(-n2nc3c(c2-n2ccn(-c4ccc5c(cnn5C)c4F)c2=O)[C@H](C)N(C(=O)c2sc4cc(C5CCOC(C)(C)C5)ccc4c2C2(c4noc(=O)[nH]4)C[C@@H]2C)CC3)cc(C)c1F (some centres unmarked) [Example 3]
Second: Cc1cc(-n2nc3c(c2-n2ccn(-c4ccc5c(cnn5C)c4F)c2=O)[C@H](C)N(C(=O)c2sc4cc(C5CCOC(C)(C)C5)cnc4c2C2(c4noc(=O)[nH]4)C[C@@H]2C)CC3)cc(C)c1F (stereo partly drawn) [Example 30, 3-((2S)-1-(6-(2,2-dimethyl-tetrahydro-2H-pyran-4-yl)-2-((S)-3-(3-(4-fluoro-1-methyl-1H-indazol-5-yl)-2-oxo-2,3-dihydro-1H-imidazol-1-yl)-2-(4-fluoro-3,5-dimethylphenyl)-4-methyl-4,5,6,7-tetrahydro-2H-pyrazolo[4,3-c]pyridine-5-carbonyl)thieno[3,2-b]pyridin-3-yl)-2-methyl-cyclopropyl)-1,2,4-oxadiazol-5(4H)-one]
The EC50 of the first is 9.2-fold higher: 0.406 nM for the first, 0.044 nM for the second.

`Cc1cc(-n2nc3c(c2N2C(=O)N(c4ccc5c(cnn5C)c4F)C4CC42)[C@H](C)N(C(=O)c2cc4cc([C@H]5CCOC(C)(C)C5)ccc4n2[C@@]2(c4noc(=O)[nH]4)C[C@@H]2C)CC3)cc(C)c1F` (stereo partly drawn) [Example 6, 3-((1S,2S)-1-(5-((S)-2,2-dimethyltetrahydro-2H-pyran-4-yl)-2-((4S)-3-(4-(4-fluoro-1-methyl-1H-indazol-5-yl)-3-oxo-2,4-diazabicyclo[3.1.0]hexan-2-yl)-2-(4-fluoro-3,5-dimethylphenyl)-4-methyl-4,5,6,7-tetrahydro-2H-pyrazolo[4,3-c]pyridine-5-carbonyl)-1H-indol-1-yl)-2-methylcyclopropyl)-1,2,4-oxadiazol-5(4H)-one] and `Cc1cc(-n2nc3c(c2-n2ccn(-c4ccc5c(cnn5C)c4F)c2=O)[C@H](C)N(C(=O)c2sc4nc(C5CCOC(C)(C)C5)ccc4c2C2(c4noc(=O)[nH]4)C[C@@H]2C)CC3)cc(C)c1F` (stereo partly drawn) [Example 29, 3-((2S)-1-(6-(2,2-dimethyl-tetrahydro-2H-pyran-4-yl)-2-((S)-3-(3-(4-fluoro-1-methyl-1H-indazol-5-yl)-2-oxo-2,3-dihydro-1H-imidazol-1-yl)-2-(4-fluoro-3,5-dimethyl-phenyl)-4-methyl-4,5,6,7-tetrahydro-2H-pyrazolo[4,3-c]pyridine-5-carbonyl)thieno [2,3-b]pyridin-3-yl)-2-methylcyclopropyl)-1,2,4-oxadiazol-5(4H)-one] are within 1.5-fold of each other in EC50: 0.087 nM for the first, 0.093 nM for the second.

Compound `Cc1cc(-n2nc3c(c2-n2ccn(-c4ccc5c(cnn5C)c4F)c2=O)[C@H](C)N(C(=O)c2oc4cc(C5CCOC(C)(C)C5)ncc4c2C2(c4noc(=O)[nH]4)C[C@@H]2C)CC3)cc(C)c1F` (stereo partly drawn) [Example 31, 3-((2S)-1-(6-(2,2-dimethyl-tetrahydro-2H-pyran-4-yl)-2-((S)-3-(3-(4-fluoro-1-methyl-1H-indazol-5-yl)-2-oxo-2,3-dihydro-1H-imidazol-1-yl)-2-(4-fluoro-3,5-dimethylphenyl)-4-methyl-4,5,6,7-tetrahydro-2H-pyrazolo[4,3-c]pyridine-5-carbonyl)furo[3,2-c]pyridin-3-yl)-2-methyl-cyclopropyl)-1,2,4-oxadiazol-5(4H)-one] has an EC50 of 0.182 nM.
